Structures are written as SMILES.

cAMP and cAMP-inhibited cGMP 3',5'-cyclic phosphodiesterase 10A, sequence (Q9Y233 whole entry): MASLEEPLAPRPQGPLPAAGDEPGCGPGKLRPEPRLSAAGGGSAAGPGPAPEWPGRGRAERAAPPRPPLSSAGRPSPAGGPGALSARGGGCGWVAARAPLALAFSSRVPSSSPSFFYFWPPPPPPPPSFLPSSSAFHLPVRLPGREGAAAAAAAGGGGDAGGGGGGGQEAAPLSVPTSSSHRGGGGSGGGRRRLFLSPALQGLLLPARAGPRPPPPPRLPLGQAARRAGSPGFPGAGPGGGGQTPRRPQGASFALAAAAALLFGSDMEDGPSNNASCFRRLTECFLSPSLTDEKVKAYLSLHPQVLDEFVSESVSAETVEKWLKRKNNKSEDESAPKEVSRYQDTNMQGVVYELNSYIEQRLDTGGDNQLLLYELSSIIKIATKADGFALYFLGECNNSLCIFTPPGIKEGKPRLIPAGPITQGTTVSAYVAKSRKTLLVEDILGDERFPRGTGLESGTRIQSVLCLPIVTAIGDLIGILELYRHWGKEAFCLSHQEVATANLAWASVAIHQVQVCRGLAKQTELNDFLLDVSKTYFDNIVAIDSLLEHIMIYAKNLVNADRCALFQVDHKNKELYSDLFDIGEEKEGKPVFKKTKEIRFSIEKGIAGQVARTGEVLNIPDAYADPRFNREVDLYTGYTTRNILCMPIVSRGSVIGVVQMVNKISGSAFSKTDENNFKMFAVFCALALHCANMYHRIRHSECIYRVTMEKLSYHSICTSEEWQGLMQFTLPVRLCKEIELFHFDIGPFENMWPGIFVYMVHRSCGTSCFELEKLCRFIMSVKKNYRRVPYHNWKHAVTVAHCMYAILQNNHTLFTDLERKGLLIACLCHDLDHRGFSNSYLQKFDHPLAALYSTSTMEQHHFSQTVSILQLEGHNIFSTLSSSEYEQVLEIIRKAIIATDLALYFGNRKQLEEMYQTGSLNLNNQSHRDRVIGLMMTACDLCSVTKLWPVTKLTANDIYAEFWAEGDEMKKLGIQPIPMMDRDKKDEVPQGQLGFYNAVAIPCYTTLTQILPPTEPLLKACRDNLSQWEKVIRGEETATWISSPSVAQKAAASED

This experiment addresses cAMP and cAMP-inhibited cGMP 3',5'-cyclic phosphodiesterase 10A (Homo sapiens, UniProt Q9Y233). The experiment in a line: Scintillation Proximity Assay : PDE10 activity of the compounds of the present invention was determined using a Scintillation Proximity Assay (SPA)-based method similar to the one previously described (Fawcett, L. et al., Proc Natl Acad Sci USA (2000) 97(7):3702-3707). The human PDE10A full length assay was performed in 96-well micro titer plates. The reaction mixture of 50 μl contained 20 mM HEPES pH=7.5/10 mM MgCl2/0.05 mg/ml BSA (Sigma cat. # A-7906), 50 nM cGMP (Sigma, cat. # G6129) and 50 nM [3H]-cGMP (GE Healthcare, cat. # TRK392 S.A. 13.2 Ci/mmol), 3.75 ng/well PDE10A enzyme (Enzo Life Science, Lausen, Switzerland cat #SE-534) with or without a specific test compound. On the technique in general: In a scintillation proximity assay essentially only radioactivity close to the scintillant gives light.
On to `CC1CCCCN1C(=O)c1ncccc1NC(=O)c1nc(C2CC2)cnc1Nc1cncnc1` (centres undefined), for which the IC50 was 15.9 nM.

As to `COCCOc1ccc(NC(=O)c2nc(C3CC3)cnc2Nc2cncnc2)c(C(=O)NCC(C)(C)O)c1`, the IC50 was determined as 0.7 nM.

For `CNC(=O)c1cc(NC(C)=O)ccc1NC(=O)c1nc(C2CC2)cnc1Nc1cncnc1`, the IC50 came out at 0.4 nM.

Consider `Cn1ncc(NC(=O)c2nc(C3CC3)cnc2Nc2cncnc2)c1C(=O)NC1COC1`, for which the IC50 is 6.6 nM.

For `CN(C(=O)c1ncccc1NC(=O)c1nc(C2CC2)cnc1Nc1cncnc1)C1CCOCC1`, the IC50 amounted to 425 nM.

As for `CNC(=O)c1ccc(F)c(F)c1NC(=O)c1nc(C2CC2)cnc1Nc1cncnc1`, the IC50 came to 1.8 nM.

As for `CN(CC(F)(F)F)C(=O)c1ncccc1NC(=O)c1nc(C2CC2)cnc1Nc1cncnc1`, the IC50 was 8.1 nM.

Regarding `CC(C)(O)CNC(=O)c1cc(C#N)ccc1NC(=O)c1nc(C2CC2)cnc1Nc1cncnc1`, the IC50 was 0.7 nM.

Regarding `COCc1ccc(NC(=O)c2nc(C3CC3)cnc2Nc2cncnc2)c(C(=O)NCC(C)(C)O)n1`, the IC50 was 0.5 nM.

For the molecule `CNC(=O)c1c(NC(=O)c2nc(C3CC3)cnc2Nc2cncnc2)cnn1CC(F)(F)F`, the IC50 is 27 nM.

`CN(C)C(=O)c1c(NC(=O)c2nc(C3CC3)cnc2Nc2cncnc2)cnn1C`: the IC50 was found to be 32.2 nM.

On to `CN(C(=O)c1ncccc1NC(=O)c1nc(C2CC2)cnc1Nc1cncnc1)C1CC1`, for which the 50% inhibitory concentration (IC50) amounted to 26.8 nM.

On to `CC(CO)CNC(=O)c1c(NC(=O)c2nc(C3CC3)cnc2Nc2cncnc2)cnn1C` (centres undefined), for which the IC50 came to 1.5 nM.

For `CNC(=O)c1nc(C)ncc1NC(=O)c1nc(C2CC2)cnc1Nc1cncnc1`, the IC50 came to 19.3 nM.

A word on the IC50: it is the concentration that inhibits the measured activity by half.

The values above are taken from ChEMBL document CHEMBL3639182, “Nitrogen containing heteroaryl compounds” (2014).
